Measured values from US20130261077A1 (priority 2012, published 2013).

Target: T1, FimH-CRD (Escherichia coli, UniProt P08191)
T1 construct: The first 177 amino acids of the FimH protein; thrombin tag (printed as 'fusion protein with thrombin') (cleaved yes); made in house; host or cells: bacteria (pET21b plasmid)
Experiment: Competitive binding assay by fluorescence polarization, assay 1 (compounds prepared by manual serial dilution)
Procedure: The first 177 amino acids of the FimH protein were expressed as a fusion protein with thrombin in a pET21b plasmid in bacteria. This FimH protein sequence contains the carbohydrate recognition domain (CRD) and shall be termed FimH-CRD. Following bacterial expression of the protein, the FimH-CRD protein was purified to homogeneity and the thrombin tag removed by protease cleavage. A competitive binding assay by fluorescence polarization was performed using 5 nM of the Alexa 647 mannoside probe and 60 nM of the FimH-CRD. The samples are assayed in a low volume 384 well microtiter plate in a final volume of 20 μl. The final assay buffer conditions are the following, 50 mM Tris-Cl, ph 7.0, 100 mM NaCl, 1 mM EDTA, 5 mM β-mercaptoethanol, 0.05% BSA and 2.5% DMSO. Two assays are performed for FimH, termed assay 1 or assay 2. The assay conditions are the same for both assays except the following: assay 1 has compounds prepared by manual dilution in a serial dilution factor with 12-point dose response while assay 2 has compounds prepared by a robotics system also through a serial dilution factor (12 point dose response) and initially prepared in duplicate in 384 well-Corning polypropylene round bottom plates. The assay 2 plates have compound which is then frozen and must be thawed prior to use. Initially the Alexa 647 probe and the FimH-CRD are added to the assay buffer and then 0.5 μl of test compound (assay 1 or 2) between 0.4 nM to 75 μM final concentration are added (12 point titration with 3-fold serial dilution). Control wells for the Alexa 647 probe are prepared with the same conditions except for the addition of the FimH-CRD protein. Plates are then incubated for 5 hrs at room temperature in the dark and under humid conditions to prevent drying. Plates are read using the SpectraMax Paradigm multi-mode plate reader and the appropriate fluorescent polarization detection cartridge (Alexa-647).
Alexa 647 mannoside probe is prepared using the similar procedure reported for FAM mannoside (Han, Z. et. al., 2010, J. Med. Chem., 53, 4779) and is described in the scheme below.
To a blue colored stirred solution of (2S,3S,4S,5S,6R)-2-(4-aminobutoxy)-6-(hydroxymethyl)tetrahydropyran-3,4,5-triol (2.21 mg, 0.009 mmol) and the (2E)-2-[(2E,4E)-5-[3,3-dimethyl-5-sulfonato-1-(3-sulfonatopropyl)indol-1-ium-2-yl]penta-2,4-dienylidene]-3-[6-(2,5-dioxopyrrolidin-1-yl)oxy-6-oxo-hexyl]-3-methyl-1-(3-sulfonatopropyl)indoline-5-sulfonate (Potassium Ion (3)) (4.9 mg, 0.0044 mmol) in DMF (44 μL) is added Et3N (5.4 mg, 7.0 μL, 0.053 mmol) at RT. The solution is stirred at room temperature over night, concentrated, dissolved in water and purified on 12 g C-18 silica gel cartridge on Isolera system using acetonitrile in water (0 to 40%, 10 CV) and followed by lyophilization to afford Alexa 647 mannoside probe (3.3 mg, 34%) as deep blue solid.
The Kd values of the compounds are determined from dose response curves using twelve concentrations per compound in duplicate. Curves are fitted to data points using Fluorescence Polarization competitive displacement analysis, and Kds are interpolated from the resulting curves using GraphPad Prism software, version […] (GraphPad software Inc., San Diego, Calif., USA).

T1 sequence (P08191 22-177): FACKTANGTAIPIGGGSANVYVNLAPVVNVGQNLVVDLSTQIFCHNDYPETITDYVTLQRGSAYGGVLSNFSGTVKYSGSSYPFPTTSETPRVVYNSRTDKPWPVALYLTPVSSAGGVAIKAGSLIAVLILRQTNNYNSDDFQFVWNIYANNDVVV

SMILES	IC50	Kd
O=C(Nc1nc2ccc(Cl)cc2s1)c1cccc([C@H]2O[C@H](CO)[C@@H](O)[C@H](O)[C@@H]2O)c1 [Compound 30, N-(6-chlorobenzo[d]thiazol-2-yl)-3-((2R,3S,4R,5S,6R)-3,4,5-trihydroxy-6-(hydroxymethyl)tetrahydro-2H-pyran-2-yl)benzamide]	53 nM	9.8 ± 1.8 nM
CCCc1ccc(NC(=O)c2cccc([C@H]3O[C@H](CO)[C@@H](O)[C@H](O)[C@@H]3O)c2)cc1 [Compound 31, N-(4-propylphenyl)-3-((2R,3S,4R,5S,6R)-3,4,5-trihydroxy-6-(hydroxymethyl)tetrahydro-2H-pyran-2-yl)benzamide]	84 nM	22.8 ± 0.9 nM
O=C(Nc1ccc2ccccc2c1)c1cccc([C@H]2O[C@H](CO)[C@@H](O)[C@H](O)[C@@H]2O)c1 [Compound 32, N-(naphthalen-2-yl)-3-((2R,3S,4R,5S,6R)-3,4,5-trihydroxy-6-(hydroxymethyl)tetrahydro-2H-pyran-2-yl)benzamide]	45 nM	22.6 ± 18.7 nM
O=C(NCc1ccccc1)c1cccc([C@H]2O[C@H](CO)[C@@H](O)[C@H](O)[C@@H]2O)c1 [Compound 33, N-benzyl-3-((2R,3S,4R,5S,6R)-3,4,5-trihydroxy-6-(hydroxymethyl)tetrahydro-2H-pyran-2-yl)benzamide]	76 nM	28.9 ± 14.5 nM
O=C(NCCc1ccccc1)c1cccc([C@H]2O[C@H](CO)[C@@H](O)[C@H](O)[C@@H]2O)c1 [Compound 34, N-phenethyl-3-((2R,3S,4R,5S,6R)-3,4,5-trihydroxy-6-(hydroxymethyl)tetrahydro-2H-pyran-2-yl)benzamide]	124 nM	38 ± 7.1 nM
O=C(NC1CC1)c1cccc([C@H]2O[C@H](CO)[C@@H](O)[C@H](O)[C@@H]2O)c1 [Compound 36, N-cyclopropyl-3-((2R,3S,4R,5S,6R)-3,4,5-trihydroxy-6-(hydroxymethyl)tetrahydro-2H-pyran-2-yl)benzamide]	168 nM	53.2 ± 6.5 nM
O=C(NCC1CC1)c1cccc([C@H]2O[C@H](CO)[C@@H](O)[C@H](O)[C@@H]2O)c1 [Compound 37, N-(cyclopropylmethyl)-3-((2R,3S,4R,5S,6R)-3,4,5-trihydroxy-6-(hydroxymethyl)tetrahydro-2H-pyran-2-yl)benzamide]		40.1 ± 15.1 nM
CNC(=O)c1cccc(-c2ccccc2[C@H]2O[C@H](CO)[C@@H](O)[C@H](O)[C@@H]2O)c1 [Compound 39, N-methyl-2′-((2R,3S,4R,5S,6R)-3,4,5-trihydroxy-6-(hydroxymethyl)tetrahydro-2H-pyran-2-yl)-[1,1′-biphenyl]-3-carboxamide]	1390 nM	396 ± 44.7 nM
COc1ccc(Br)cc1[C@H]1O[C@H](CO)[C@@H](O)[C@H](O)[C@@H]1O [Compound 41, (2R,3S,4R,5S,6R)-2-(5-bromo-2-methoxyphenyl)-6-(hydroxymethyl)tetrahydro-2H-pyran-3,4,5-triol]	223 nM	47.8 ± 6.8 nM
COC(=O)CCc1ccc(OC)c([C@H]2O[C@H](CO)[C@@H](O)[C@H](O)[C@@H]2O)c1 [Compound 42, Methyl 3-(4-methoxy-3-((2R,3S,4R,5S,6R)-3,4,5-trihydroxy-6-(hydroxymethyl)tetrahydro-2H-pyran-2-yl)phenyl)propanoate]	225 nM	58.4 ± 9.8 nM
OC[C@H]1O[C@H](c2cccc(-c3ccccc3)c2)[C@@H](O)[C@@H](O)[C@@H]1O [Compound 43, (2R,3S,4R,5S,6R)-2-(hydroxymethyl)-6-(3-phenylphenyl)tetrahydropyran-3,4,5-triol]	64 nM	12.4 ± 1.3 nM
OC[C@H]1O[C@H](c2ccccc2O)[C@@H](O)[C@@H](O)[C@@H]1O [Compound 45, (2R,3S,4R,5S,6R)-2-(hydroxymethyl)-6-(2-hydroxyphenyl)tetrahydropyran-3,4,5-triol]	183 nM	76.9 ± 49.1 nM
OC[C@H]1O[C@H](c2ccc(O)cc2)[C@@H](O)[C@@H](O)[C@@H]1O [Compound 46, (2R,3S,4R,5S,6R)-2-(hydroxymethyl)-6-(4-hydroxyphenyl)tetrahydropyran-3,4,5-triol]	148 nM	28.2 ± 13.3 nM
OC[C@H]1O[C@H](c2cccc(F)c2)[C@@H](O)[C@@H](O)[C@@H]1O [Compound 47, (2R,3S,4R,5S,6R)-2-(3-fluorophenyl)-6-(hydroxymethyl)tetrahydropyran-3,4,5-triol]	163 nM	40.6 ± 10.4 nM
CC(C)C(=O)Nc1ccc(-c2cccc([C@H]3O[C@H](CO)[C@@H](O)[C@H](O)[C@@H]3O)c2)cc1 [Compound 49, 2-methyl-N-[4-[3-[(2R,3S,4R,5S,6R)-3,4,5-trihydroxy-6-(hydroxymethyl)tetrahydropyran-2-yl]phenyl]phenyl]propanamide]	45 nM	6.3 ± 1.4 nM
CNS(=O)(=O)c1cccc(-c2cccc([C@H]3O[C@H](CO)[C@@H](O)[C@H](O)[C@@H]3O)c2)c1 [Compound 50, N-methyl-3-[3-[(2R,3S,4R,5S,6R)-3,4,5-trihydroxy-6-(hydroxymethyl)tetrahydropyran-2-yl]phenyl]benzenesulfonamide]	39 nM	10.7 ± 5.2 nM
COC(=O)c1cc(Oc2cccc([C@H]3O[C@H](CO)[C@@H](O)[C@H](O)[C@@H]3O)c2)cc(C(=O)OC)c1 [Compound 51, Dimethyl 5-[3-[(2R,3S,4R,5S,6R)-3,4,5-trihydroxy-6-(hydroxymethyl)tetrahydropyran-2-yl]phenoxy]benzene-1,3-dicarboxylate]	33 nM	5.2 ± 0.1 nM
COC(=O)c1ccc(Oc2cccc([C@H]3O[C@H](CO)[C@@H](O)[C@H](O)[C@@H]3O)c2)cc1 [Compound 52, Methyl 4-[3-[(2R,3S,4R,5S,6R)-3,4,5-trihydroxy-6-(hydroxymethyl)tetrahydropyran-2-yl]phenoxy]benzoate]	23 nM	< 5 nM
COC(=O)Cc1ccc(Oc2ccc([C@H]3O[C@H](CO)[C@@H](O)[C@H](O)[C@@H]3O)cc2)cc1 [Compound 55, methyl 2-(4-(4-((2R,3S,4R,5S,6R)-3,4,5-trihydroxy-6-(hydroxymethyl)tetrahydro-2H-pyran-2-yl)phenoxy)phenyl)acetate]	35 nM	6.3 ± 0.4 nM
COC(=O)c1cccc(Oc2ccc([C@H]3O[C@H](CO)[C@@H](O)[C@H](O)[C@@H]3O)cc2)c1 [Compound 56, Methyl 3-(4-((2R,3S,4R,5S,6R)-3,4,5-trihydroxy-6-(hydroxymethyl)tetrahydro-2H-pyran-2-yl)phenoxy)benzoate]	14 nM	5.4 ± 0.3 nM
OC[C@H]1O[C@H](c2cccc(Oc3ccc(F)cc3)c2)[C@@H](O)[C@@H](O)[C@@H]1O [Compound 57, (2R,3S,4R,5S,6R)-2-[3-(4-fluorophenoxy)phenyl]-6-(hydroxymethyl)tetrahydropyran-3,4,5-triol]	76 nM	13.2 ± 0.2 nM
Cc1cc(C)cc(Oc2cccc([C@H]3O[C@H](CO)[C@@H](O)[C@H](O)[C@@H]3O)c2)c1 [Compound 58, (2R,3S,4R,5S,6R)-2-[3-(3,5-dimethylphenoxy)phenyl]-6-(hydroxymethyl)tetrahydropyran-3,4,5-triol]	66 nM	11.1 ± 1.6 nM
OC[C@H]1O[C@H](c2cccc(Oc3ccccc3)c2)[C@@H](O)[C@@H](O)[C@@H]1O [Compound 59, (2R,3S,4R,5S,6R)-2-(hydroxymethyl)-6-(3-phenoxyphenyl)tetrahydropyran-3,4,5-triol]	26 nM	6.3 ± 0.9 nM
COc1ccc([C@H]2O[C@H](CO)[C@@H](O)[C@H](O)[C@@H]2O)cc1O [Compound 61, (2R,3S,4R,5S,6R)-2-(3-hydroxy-4-methoxy-phenyl)-6-(hydroxymethyl)tetrahydropyran-3,4,5-triol]	42 nM	17.2 ± 10.7 nM
